Measured values taken from paper PMC7822874, “Chemoprotective antimalarials identified through quantitative high-throughput screening of Plasmodium blood and liver stage parasites” (Scientific Reports, 2021).
Where two headings read alike, the source gives them in different places.

Legend:
[1] = tested on: P. berghei-ANKA-GFP-LucCON liver stage parasites in HepG2-A16-CD81EGFP cells; assay: P. berghei liver stage Pb-Luc assay, Method 1 (UCSD, 1536-well); format: cell-based, Plasmodium berghei; conditions: P. berghei liver stage; for activity at 1 µM / activity at 3 µM: Plasmodium berghei, 48 h; for activity at 1 µM / PbLuc 1uM growth rep1 / PbLuc 1uM growth rep2: 1 µM compound treatment (10 mM stocks); for activity at 1 µM / activity at 3 µM / PbLuc 1uM growth rep1 / PbLuc 1uM growth rep2 / PbLuc 3uM growth rep1 / PbLuc 3uM growth rep2: average of 2 wells on a 1536 well plate; for activity at 3 µM / PbLuc 3uM growth rep1 / PbLuc 3uM growth rep2: 3 µM compound treatment (10 mM stocks); for Average P. berghei 3 µM response( %) / Average P. berghei 1 µM response (%): averaged response (percent); for Average P. berghei 1 µM response (%): the header list (r8) defines it as the 1 µM dose
[2] = tested on: Plasmodium falciparum Dd2 asexual blood stage parasites; assay: microbe, parasite or virus in culture; design: species or system Plasmodium falciparum Dd2 in human erythrocytes; single determination (one 11-point concentration-response curve); conditions: Plasmodium falciparum, DD2, Erythrocyte, 72 h; read-out: AC50
HepG2-A16-CD81EGFP cells = conditions: for HepG2 1uM growth rep1 / HepG2 1uM growth rep2: HepG2, 1 µM compound treatment (10 mM stocks); for HepG2 1uM growth rep1 / HepG2 3uM growth rep1: replicate 1, normalized; for HepG2 1uM growth rep1 / HepG2 1uM growth rep2 / HepG2 3uM growth rep1 / HepG2 3uM growth rep2: average of 2 wells; for HepG2 1uM growth rep2 / HepG2 3uM growth rep2: replicate 2, normalized; for HepG2 3uM growth rep1 / HepG2 3uM growth rep2: HepG2, 3 µM compound treatment (10 mM stocks); for Average HepG2 3 µM response( %): averaged response (percent)
[3] = replicate 1, normalized, read-out: PbLuc 1uM growth rep1
[4] = replicate 2, normalized, read-out: PbLuc 1uM growth rep2
[5] = replicate 1, normalized, read-out: PbLuc 3uM growth rep1
[6] = replicate 2, normalized, read-out: PbLuc 3uM growth rep2
[7] = HepG2, the header list (r10) describes it as the 1 µM dose

COc1cc(O)c(C(CCN2CCCCC2)c2ccc(N(C)C)cc2)c(OC)c1 (centres unmarked) [MLS000879496-01]
activity at 1 µM [1, 3]: 126% | activity at 1 µM [1, 4]: 95% | activity at 3 µM [1, 5]: 91% | activity at 3 µM [1, 6]: 95% | AC50 [2]: 2660 nM | HepG2 1uM growth rep1 (HepG2-A16-CD81EGFP cells): 108% | HepG2 1uM growth rep2 (HepG2-A16-CD81EGFP cells): 100% | HepG2 3uM growth rep1 (HepG2-A16-CD81EGFP cells): 87% | HepG2 3uM growth rep2 (HepG2-A16-CD81EGFP cells): 98%

CCOC(=O)C1CCN(C(=O)c2cc(C(C)(C)C)nn2Cc2ccccc2)CC1 [MLS000860456-01]
activity at 1 µM [1, 3]: 119% | activity at 1 µM [1, 4]: 98% | activity at 3 µM [1, 5]: 89% | activity at 3 µM [1, 6]: 96% | AC50 [2]: 4730 nM | HepG2 1uM growth rep1 (HepG2-A16-CD81EGFP cells): 105% | HepG2 1uM growth rep2 (HepG2-A16-CD81EGFP cells): 95% | HepG2 3uM growth rep1 (HepG2-A16-CD81EGFP cells): 88% | HepG2 3uM growth rep2 (HepG2-A16-CD81EGFP cells): 93%

CCOC(=O)c1sc2nc3c(SCCC#N)cc(C(=O)c4cc(F)ccc4O)cn3c(=O)c2c1C [MLS000393119-01]
activity at 1 µM [1, 3]: 107% | activity at 1 µM [1, 4]: 121% | activity at 3 µM [1, 5]: 76% | activity at 3 µM [1, 6]: 92% | AC50 [2]: 1680 nM | HepG2 1uM growth rep1 (HepG2-A16-CD81EGFP cells): 91% | HepG2 1uM growth rep2 (HepG2-A16-CD81EGFP cells): 92% | HepG2 3uM growth rep1 (HepG2-A16-CD81EGFP cells): 89% | HepG2 3uM growth rep2 (HepG2-A16-CD81EGFP cells): 93%

CCOC(=O)c1c(NC(=O)C[n+]2ccc(N(C)C)cc2)sc(C)c1C [MLS000710762-01]
activity at 1 µM [1, 3]: 75% | activity at 1 µM [1, 4]: 72% | activity at 3 µM [1, 5]: 18% | activity at 3 µM [1, 6]: 30% | AC50 [2]: 1330 nM | HepG2 1uM growth rep1 (HepG2-A16-CD81EGFP cells): 91% | HepG2 1uM growth rep2 (HepG2-A16-CD81EGFP cells): 84% | HepG2 3uM growth rep1 (HepG2-A16-CD81EGFP cells): 65% | HepG2 3uM growth rep2 (HepG2-A16-CD81EGFP cells): 65%

Cc1ccc(-c2c(C(=O)N/N=C/c3cccc(Cl)c3)nnn2-c2nonc2N)cc1 [MLS001139410-01]
activity at 1 µM [1, 3]: 143% | activity at 1 µM [1, 4]: 123% | activity at 3 µM [1, 5]: 105% | activity at 3 µM [1, 6]: 91% | AC50 [2]: 237 nM | HepG2 1uM growth rep1 (HepG2-A16-CD81EGFP cells): 90% | HepG2 1uM growth rep2 (HepG2-A16-CD81EGFP cells): 91% | HepG2 3uM growth rep1 (HepG2-A16-CD81EGFP cells): 90% | HepG2 3uM growth rep2 (HepG2-A16-CD81EGFP cells): 94%

COc1cc(NC(=O)c2cc([N+](=O)[O-])ccc2NC(=O)CNC2CCCCC2C)cc(OC)c1 (centres unmarked) [MLS000950459-01]
activity at 1 µM [1, 3]: 94% | activity at 1 µM [1, 4]: 109% | activity at 3 µM [1, 5]: 82% | activity at 3 µM [1, 6]: 122% | AC50 [2]: 5960 nM | HepG2 1uM growth rep1 (HepG2-A16-CD81EGFP cells): 96% | HepG2 1uM growth rep2 (HepG2-A16-CD81EGFP cells): 92% | HepG2 3uM growth rep1 (HepG2-A16-CD81EGFP cells): 90% | HepG2 3uM growth rep2 (HepG2-A16-CD81EGFP cells): 90%

COc1cc2ccccc2cc1C(=O)N1CCCC(C(F)(F)F)C1 (centres unmarked) [MLS002180647-01]
activity at 1 µM [1, 3]: 90% | activity at 1 µM [1, 4]: 108% | activity at 3 µM [1, 5]: 85% | activity at 3 µM [1, 6]: 115% | AC50 [2]: 5310 nM | HepG2 1uM growth rep1 (HepG2-A16-CD81EGFP cells): 105% | HepG2 1uM growth rep2 (HepG2-A16-CD81EGFP cells): 90% | HepG2 3uM growth rep1 (HepG2-A16-CD81EGFP cells): 83% | HepG2 3uM growth rep2 (HepG2-A16-CD81EGFP cells): 89%

COc1ccc(-n2nc(C(=O)NCC(=O)N3CCN(c4ccccc4OC)CC3)c3ccccc3c2=O)c(OC)c1 [MLS000936211-01]
activity at 1 µM [1, 3]: 82% | activity at 1 µM [1, 4]: 118% | activity at 3 µM [1, 5]: 90% | activity at 3 µM [1, 6]: 112% | AC50 [2]: 2110 nM | HepG2 1uM growth rep1 (HepG2-A16-CD81EGFP cells): 89% | HepG2 1uM growth rep2 (HepG2-A16-CD81EGFP cells): 88% | HepG2 3uM growth rep1 (HepG2-A16-CD81EGFP cells): 92% | HepG2 3uM growth rep2 (HepG2-A16-CD81EGFP cells): 89%

CCOC(=O)C1CCN(Cc2cc(Cl)c3ccccc3c2O)CC1 [MLS001171913-01]
activity at 1 µM [1, 3]: 100% | activity at 1 µM [1, 4]: 93% | activity at 3 µM [1, 5]: 91% | activity at 3 µM [1, 6]: 110% | AC50 [2]: 1880 nM | HepG2 1uM growth rep1 (HepG2-A16-CD81EGFP cells): 88% | HepG2 1uM growth rep2 (HepG2-A16-CD81EGFP cells): 93% | HepG2 3uM growth rep1 (HepG2-A16-CD81EGFP cells): 88% | HepG2 3uM growth rep2 (HepG2-A16-CD81EGFP cells): 86%

CCCCc1c(C)c(C#N)c2nc3ccccc3n2c1Nc1c(C)n(C)n(-c2ccccc2)c1=O [MLS000555448-01]
activity at 1 µM [1, 3]: 131% | activity at 1 µM [1, 4]: 125% | activity at 3 µM [1, 5]: 114% | activity at 3 µM [1, 6]: 127% | AC50 [2]: 2660 nM | HepG2 1uM growth rep1 (HepG2-A16-CD81EGFP cells): 92% | HepG2 1uM growth rep2 (HepG2-A16-CD81EGFP cells): 93% | HepG2 3uM growth rep1 (HepG2-A16-CD81EGFP cells): 87% | HepG2 3uM growth rep2 (HepG2-A16-CD81EGFP cells): 94%

COc1ccc2nc(N3CCN(C(=O)c4ccc([N+](=O)[O-])o4)CC3)sc2c1 [MLS001234236-01]
activity at 1 µM [1, 3]: 100% | activity at 1 µM [1, 4]: 81% | activity at 3 µM [1, 5]: 91% | activity at 3 µM [1, 6]: 103% | AC50 [2]: 4730 nM | HepG2 1uM growth rep1 (HepG2-A16-CD81EGFP cells): 91% | HepG2 1uM growth rep2 (HepG2-A16-CD81EGFP cells): 90% | HepG2 3uM growth rep1 (HepG2-A16-CD81EGFP cells): 89% | HepG2 3uM growth rep2 (HepG2-A16-CD81EGFP cells): 89%

Nc1nonc1-n1nnc(C(=O)N/N=C/c2ccc(Br)cc2)c1-c1ccc2c(c1)OCO2 [MLS001142619-01]
activity at 1 µM [1, 3]: 115% | activity at 1 µM [1, 4]: 112% | activity at 3 µM [1, 5]: 108% | activity at 3 µM [1, 6]: 122% | AC50 [2]: 422 nM | HepG2 1uM growth rep1 (HepG2-A16-CD81EGFP cells): 91% | HepG2 1uM growth rep2 (HepG2-A16-CD81EGFP cells): 88% | HepG2 3uM growth rep1 (HepG2-A16-CD81EGFP cells): 86% | HepG2 3uM growth rep2 (HepG2-A16-CD81EGFP cells): 93%

COc1ccccc1[C@@]1(C)ON(c2ccccc2C(F)(F)F)C1=O [MLS002206613-01]
PbLuc 1uM growth rep1 ([1]; replicate 1, normalized): 129% | PbLuc 1uM growth rep2 ([1]; replicate 2, normalized): 87% | PbLuc 3uM growth rep1 ([1]; replicate 1, normalized): 95% | PbLuc 3uM growth rep2 ([1]; replicate 2, normalized): 109% | HepG2 1uM growth rep1 (HepG2-A16-CD81EGFP cells): 103% | HepG2 1uM growth rep2 (HepG2-A16-CD81EGFP cells): 96% | HepG2 3uM growth rep1 (HepG2-A16-CD81EGFP cells): 83% | HepG2 3uM growth rep2 (HepG2-A16-CD81EGFP cells): 94%

CC(C)N(Cc1ccccc1)C(=O)CN1C(=O)COc2ccc(S(=O)(=O)N3CCCCCC3)cc21 [MLS001124552-01]
PbLuc 1uM growth rep1 ([1]; replicate 1, normalized): 121% | PbLuc 1uM growth rep2 ([1]; replicate 2, normalized): 115% | PbLuc 3uM growth rep1 ([1]; replicate 1, normalized): 113% | PbLuc 3uM growth rep2 ([1]; replicate 2, normalized): 144% | HepG2 1uM growth rep1 (HepG2-A16-CD81EGFP cells): 91% | HepG2 1uM growth rep2 (HepG2-A16-CD81EGFP cells): 91% | HepG2 3uM growth rep1 (HepG2-A16-CD81EGFP cells): 88% | HepG2 3uM growth rep2 (HepG2-A16-CD81EGFP cells): 90%

Cc1ccc(Nc2cc(C)c3ccc(O)cc3n2)cc1C.Cl [MLS000674791-01]
PbLuc 1uM growth rep1 ([1]; replicate 1, normalized): 115% | PbLuc 1uM growth rep2 ([1]; replicate 2, normalized): 107% | PbLuc 3uM growth rep1 ([1]; replicate 1, normalized): 69% | PbLuc 3uM growth rep2 ([1]; replicate 2, normalized): 101% | HepG2 1uM growth rep1 (HepG2-A16-CD81EGFP cells): 98% | HepG2 1uM growth rep2 (HepG2-A16-CD81EGFP cells): 92% | HepG2 3uM growth rep1 (HepG2-A16-CD81EGFP cells): 89% | HepG2 3uM growth rep2 (HepG2-A16-CD81EGFP cells): 95%

Cc1cc(C)n(Cc2ccc(C(=O)N3CCC(c4noc(-c5cccnc5)n4)C3)o2)n1 (centres unmarked) [NCGC00441856]
Average P. berghei 3 µM response( %) [1]: 100% | Average P. berghei 1 µM response (%) [1]: 107% | Average HepG2 3 µM response( %) (HepG2-A16-CD81EGFP cells; HepG2, 3 µM dose): 104% | Average HepG2 3 µM response( %) (HepG2-A16-CD81EGFP cells; [7]): 103%

COc1cc(OC)c(OC)cc1CN1CCc2nc(N(C)C)[nH]c(=O)c2CC1 [NCGC00440589]
Average P. berghei 3 µM response( %) [1]: 112% | Average P. berghei 1 µM response (%) [1]: 99% | Average HepG2 3 µM response( %) (HepG2-A16-CD81EGFP cells; HepG2, 3 µM dose): 100% | Average HepG2 3 µM response( %) (HepG2-A16-CD81EGFP cells; [7]): 102%
